In patent publication US7429679B2, “Sulphonic acid salt of sibutramine” (CJ Corporation, priority 2005, dated 2008):
“Also recorded” adds a separate entry of the source. Where a name gives a salt, the structure may show the parent alone.

Assays:
[1] = Evaluation of light stability: exposure to fluorescence at 25° C., ICH light stability test chamber, content by HPLC; assay type: physicochemical; set-up: content (HPLC) in light stability test: reference not given here
Protocol: A light stability test was performed as follows. The sulphonic acid salts of sibutramine, prepared in Examples 1 to 5, and sibutramine hydrochloride monohydrate were exposed to fluorescence at 25° C. using a light stability test chamber suitable for the ICH guideline, for storage periods of 1, 2 and 4 weeks.

[2] = Evaluation of stability: stringent 60° C. heat treatment, content by HPLC; assay type: physicochemical; set-up: content (HPLC) upon 60° C. heat treatment: reference not given here
Protocol: The sulphonic acid salts of sibutramine, prepared in Examples 1 to 5, and sibutramine hydrochloride monohydrate were exposed to a stringent 60° C. heat treatment.
HPLC was performed under the following conditions.
Wavelength of UV detection: 225 nm
Column: octadecyl silica gel, C18 (4.6×150 mm, 5 μm)
Mobile phase: an aqueous solution of ammonium phosphate monohydride (0.05 M) (adjusted to pH 6 with phosphoric acid): acetonitrile=35:65

[3] = Evaluation of hygroscopicity: water content (K.F.) after exposure to humid conditions at 25° C.; assay type: physicochemical
Protocol: The sulphonic acid salts of sibutramine, prepared in Examples 1 to 5, and sibutramine hydrochloride monohydrate were exposed to humid conditions (10%, 75% and 90% RH) at 25° C. for a period of three days or one week. Then, the water content (K.F. water %) of the samples was measured.

[4] = Evaluation of solubility in distilled water and aqueous solutions having various pH values; assay type: physicochemical
rat = conditions: oral; cited from earlier work

## CC(C)CC(N(C)C)C1(c2ccc(Cl)cc2)CCC1 (stereo not drawn) [HCl monohydrate, sibutramine hydrochloride monohydrate, reference compound]
[1]; Initial
  content (HPLC) in light stability test: 1.000
[1]; content changes analyzed by HPLC
  light stability (in words): good light stability
[1]; fluorescence, 25° C., 1 wk, hydrochloride monohydrate
  content (HPLC) in light stability test: 0.999
[1]; fluorescence, 25° C., 2 wks, hydrochloride monohydrate
  content (HPLC) in light stability test: 1.000
[1]; fluorescence, 25° C., 4 wks, hydrochloride monohydrate
  content (HPLC) in light stability test: 0.999
[2]; 60° C., 1 wk, hydrochloride monohydrate
  content (HPLC) upon 60° C. heat treatment: 0.999
[2]; 60° C., 2 wks, hydrochloride monohydrate
  content (HPLC) upon 60° C. heat treatment: 0.999
[2]; 60° C., 4 wks, hydrochloride monohydrate
  content (HPLC) upon 60° C. heat treatment: 0.999
[2]; 60° C., up to one month or longer
  change in content / impurities upon 60° C. heat treatment (in words): almost no change in content
[2]; Initial
  content (HPLC) upon 60° C. heat treatment: 1.000
[3]; 10% relative humidity, 25° C., 1 week, hydrochloride monohydrate
  water content (K.F. water %): 5.48%
[3]; 10% relative humidity, 25° C., 3 days, hydrochloride monohydrate
  water content (K.F. water %): 5.51%
[3]; 75% relative humidity, 25° C., 1 week, hydrochloride monohydrate
  water content (K.F. water %): 5.50%
[3]; 75% relative humidity, 25° C., 3 days, hydrochloride monohydrate
  water content (K.F. water %): 5.49%
[3]; 90% relative humidity, 25° C., 1 week, hydrochloride monohydrate
  water content (K.F. water %): 5.49%
[3]; 90% relative humidity, 25° C., 3 days, hydrochloride monohydrate
  water content (K.F. water %): 5.50%
[3]; Initial, hydrochloride monohydrate
  water content (K.F. water %): 5.50%

## CC(C)CC(N(C)C)C1(c2ccc(Cl)cc2)CCC1 (stereo not drawn) [Tosylate, sibutramine tosylate]
[1]; Initial
  content (HPLC) in light stability test: 1.000
[1]; fluorescence, 25° C., 1 wk
  content (HPLC) in light stability test: 1.000
[1]; fluorescence, 25° C., 2 wks
  content (HPLC) in light stability test: 0.999
[1]; fluorescence, 25° C., 4 wks
  content (HPLC) in light stability test: 0.999
[4]; DW (distilled water)
  solubility: 24320 µg/mL
[4]; distilled water (DW) and buffer solutions at various pH values
  solubility compared to sibutramine hydrochloride monohydrate (in words): slightly low solubility compared to sibutramine hydrochloride monohydrate; also recorded: slightly lower solubility than sibutramine hydrochloride monohydrate
[4]; pH 1.2
  solubility: 8360 µg/mL
[4]; pH 4.0
  solubility: 7560 µg/mL
[4]; pH 5.3
  solubility: 5530 µg/mL
[4]; pH 6.8
  solubility: 21920 µg/mL
[4]; pH 7.4
  solubility: 7690 µg/mL
[2]; 60° C., 1 wk
  content (HPLC) upon 60° C. heat treatment: 0.999
[2]; 60° C., 2 wks
  content (HPLC) upon 60° C. heat treatment: 1.000
[2]; 60° C., 4 wks
  content (HPLC) upon 60° C. heat treatment: 0.999
[2]; Initial
  content (HPLC) upon 60° C. heat treatment: 1.000
[3]; 10% relative humidity, 25° C., 1 week, listed as Tosyalte
  water content (K.F. water %): 0.07%
[3]; 10% relative humidity, 25° C., 3 days, listed as Tosyalte
  water content (K.F. water %): 0.08%
[3]; 75% relative humidity, 25° C., 1 week, listed as Tosyalte
  water content (K.F. water %): 0.08%
[3]; 75% relative humidity, 25° C., 3 days, listed as Tosyalte
  water content (K.F. water %): 0.05%
[3]; 90% relative humidity, 25° C., 1 week, listed as Tosyalte
  water content (K.F. water %): 0.07%
[3]; 90% relative humidity, 25° C., 3 days, listed as Tosyalte
  water content (K.F. water %): 0.05%
[3]; Initial, listed as Tosyalte
  water content (K.F. water %): 0.10%
[3]; relative humidities of 10%, 75% and 90%, up to one week or longer
  change in water content under humid conditions (in words): almost no change in water content

## O=S(=O)(O)c1ccccc1 [benzenesulfonic acid]
rat
  LD50: 1,157 mg/kg

## Cc1ccc(S(=O)(=O)O)cc1 [p-toluenesulfonic acid]
rat
  LD50: 2,480 mg/kg
